Like-named read-outs stand apart in the source and are kept apart here.
How the values were obtained:
[1] = test system: MDA-1986 cells; experiment: Nitric oxide release (Griess) in cell culture with MDA-1986 cells; format: cell-based, human
Method: The fluorescence intensity was measured between 520 and 550 nm using a fluorescence microplate reader.
The concentration of nitrite, the stable breakdown product of gaseous nitric oxide, was measured using Griess assay as an indirect measurement of nitric oxide concentration in cell culture media. The assay is based on the reaction between sulfanilamide, N-1-napthyethylenediamine dihydrochloride and nitrite, under acidic conditions to produce a […] azo compound.

[2] = test system: MDA-1986 cells; experiment: Cell growth inhibition (resazurin blue), MDA-1986; format: cell-based, human; conditions: 72 hours
Method: (§1) Cell growth inhibition was determined in 96-well plates (3,000 cells/well in 100 μL, 12 replicates/sample) using highly invasive human breast cancer cells, MDA-MB-231, non-metastatic human breast cancer cells, MDA-MB-468, and highly invasive human head and neck squamous cell cancer cells positive for epithelia growth factor receptor, MDA-1986. Drug or conjugate solutions were applied after 24 hours, and 72 hours post-addition, resazurin blue in 10 μL of PBS was applied to each well (final concentration 5 μM).

[3] = test system: MDA-MB-468 cells; experiment: Cell growth inhibition (resazurin blue), MDA-MB-468; format: cell-based, human; conditions: 72 hours
Method: as §1

[4] = cited from earlier work
[5] = test system: HUVEC cells; experiment: In vitro cytotoxicity (resazurin blue), HUVEC; format: cell-based, human
Method: (§2) B16F10 (lymphatically metastatic murine melanoma), MDA-MB-231 (human breast cancer), and HUVEC (normal human endothelial) cell lines, were maintained in Dulbecco's modified Eagle's medium (DMEM) supplemented with 1% L-Glutamine and 10% bovine growth serum in 5% CO2 atmosphere. The HER2-expressing murine breast cancer cell line, 4T1.2 Neu was maintained in DMEM supplemented with 1% L-Glutamine, 10% bovine growth serum, and 500 μg/mL of G418 (geneticin) in 5% CO2 atmosphere. The lymphatically metastatic human melanoma cell line, A2058 was maintained in low sodium bicarbonate (1.5 g/L) containing DMEM supplemented with 1% L-Glutamine, 10% bovine growth serum in 5% CO2 atmosphere.
(§3) Prior to cell growth inhibition studies, cells were trypsinized and seeded at 3000 cells/well into 96-well tissue culture plates. After 24 hours, geldanamycin, 17-DMAG, 17-AAG, 17-HEAG, Star-GA (GA basis), or melphalan hydrochloride dilutions in 1×PBS (Fisher BioReagents, pH 7.4) with up to 3% DMSO (final well concentration, for the highest drug concentration) were added to the B16F10, A2058, HUVEC, 4T1.2 Neu, or MDA-MB-231 cells (n=8 or 12, 10 μL/well, 8 or 6 concentrations 10^−10 to 10^−3 M, respectively). Solutions of 10% trichloracetic acid was used as a negative control, media was used as a positive control, and 3% DMSO was used as an additional control (n=8 or 12, 10 μL/well). At 72 h post addition, 10 μL of resazurin blue in PBS was added (5 μM final concentration) to each well. After 3 hours, well fluorescence was measured (λex/λem=560/590 nm) (SpectraMax Gemini, Molecular Devices). IC50s were determined using the nonlinear regression curve fit of a one-site competition (GraphPad Prism 10).

[6] = test system: B16F10 cells; experiment: cells; format: cell-based, murine; conditions: for IC50: read-out: IC50s B16F10
Method: as §2, §3

[7] = test system: 4T1.2 Neu cells; experiment: In vitro cytotoxicity (resazurin blue), 4T1.2 Neu; format: cell-based, murine; conditions: 72 h, Star-GA on GA basis, read-out: IC50s 4T1.2 Neu
Method: as §2, §3

[8] = test system: A2058 cells; experiment: In vitro cytotoxicity (resazurin blue), A2058; format: cell-based, human; conditions: read-out: IC50s A2058
Method: as §2, §3

[9] = test system: MDA-MB-231 cells; experiment: In vitro cytotoxicity (resazurin blue), MDA-MB-231; format: cell-based, human; conditions: 72 h, Star-GA on GA basis, read-out: IC50s MDA-MB-231
Method: as §2
Prior to cell growth inhibition studies, cells were trypsinized and seeded at 3000 cells/well into 96-well tissue culture plates. […] After 3 hours, well fluorescence was measured (λex/λem=560/590 nm) (SpectraMax Gemini, Molecular Devices). IC50s were determined using the nonlinear regression curve fit of a one-site competition (GraphPad Prism 10).

[10] = test system: 4T1.2 Neu tumors; experiment: Anticancer efficacy in 4T1.2 Neu tumor bearing mice; format: in vivo; conditions: 17-DMAG i.v. 10 mg/kg, Star-GA s.c. 45 mg/kg
Text: During cell preparation of the 4T1.2 Neu cells for implantation, G418 free media was used. Prior to tumor implantation, the hair surrounding the right upper portion of the mouse's chest was removed with depilatory cream. […].
Seven week old (18-22 g) female Balb/c mice purchased from Jackson Laboratory (Bar Harbor, Me.) were used in this study. On Day 7, when tumors reached 100-250 mm^3, mice were randomly divided into four treatment groups, consisting of no treatment (n=7), 60% […] (n=5), 17-DMAG (n=7), and Star-GA (n=8). The 17-DMAG was dosed at 10 mg/kg i.v. as a 1:1 sterile DMSO:PBS solution. Star-GA was dosed at 45 mg/kg (17-HEAG basis, 15% loading, 300 mg/kg Star-GA conjugate), in sterile 35% DMSO and 65% PBS, which was divided into two peritumoral injections on either side of the mammary tumor. Finally, the 60% […] was dosed at an equivalent star polymer concentration used for the 45 mg/kg Star-GA (255 mg/kg 60% […]), which was divided into two peritumoral injections onto either side of the mammary tumor. Tumor volumes were monitored and reported every two days (FIG. 33).
To minimize the occurrence of necrotic tails upon dosing 17-DMAG, as observed in the B16F10 in vivo study described in the previous section, 17-DMAG was dosed at 10 mg/kg i.v. in a 1:1 sterile DMSO:PBS solution rather than 15 mg/kg in 100% DMSO.

[11] = test system: B16F10 tumors; format: in vivo; conditions: for B16F10 tumor response: melphalan i.v. 5 mg/kg, 17-DMAG i.v. 15 mg/kg, Star-GA s.c. 15 mg/kg DMAG equivalent, polymer s.c. equivalent dose, vs non-treated
Method: . The tumors were measured and recorded, the volumes were calculated using the equation: Tumor Volume (mm^3)=0.52×(width)^2×length. When the B16F10 tumors reached 200-350 mm^3 (ca. Days 6-9), mice were randomly divided into five treatment groups: melphalan (i.v., n=5), 17-DMAG (i.v., n=4), star polymer (s.c., n=6), Star-GA (s.c., n=7), or no treatment (n=4) (FIG. 30).
Mice in the melphalan treatment group were injected once with melphalan (5 mg/kg) intravenously via the tail veil under isoflurane anesthesia. The formulation used to treat mice bearing B16F10 tumors was modified slightly from the product insert for ALKERAN (melphalan hydrochloride) for injections into humans. Melphalan was dissolved in concentrated hydrochloric acid (35-38%) to give a 15 mg/mL solution. The melphalan solution was then aliquoted into vials to give 0.75 mg melphalan/vial, and was dried using a speedvac concentrator (Labconoco) for 1.5 hours at 35° C. followed by 1 hour at ambient temperature. The vials containing dry melphalan hydrochloride were sealed and placed at −20° C. until further use. The reconstituted solution was prepared by first pre-sterilizing propylene glycol, 95% ethanol, and 0.02 g/mL sodium citrate solution, using a sterile syringe fitted with a 0.22 μm sterile filter (Millex GP PES membrane sterile filter, Millipore) into a sterile falcon tube. Then the reconstituted solution was prepared by combining 6 mL sterile propylene glycol, 0.52 mL sterile ethanol (95%), and 3.48 mL sodium citrate solution, and the solution was mixed well and filtered a second time with at 0.22 μm sterile filter. Immediately prior to injection, the 150 μL of the sterile reconstituted solution was rapidly added to the melphalan hydrochloride, the vial was immediately shaken vigorously until dissolved, followed by the rapid addition of 150 μL of sterile saline yielding a 2.5 mg/mL melphalan solution. The melphalan was dosed within 10 to 15 minutes after reconstitution to minimize degradation.
17-DMAG was dissolved in sterile DMSO and administered i.v. via the tail vein at a dose of 15 mg/kg (MTD). […]

[12] = 17-DMAG i.v.; cited from earlier work
[13] = Metastatic analysis of axillary lymph nodes by nodal volume and rtPCR; conditions: one mouse
Method: The metastatic state of the 4T1.2 Neu tumor model post treatment was assessed by axillary lymph node volume and the nodal HER 2 expression.
The total RNAs from the frozen lymph node samples were extracted using TriZol reagent (Invitrogen). The first-strand cDNA was synthesized using the Omniscript-RT Kit (QIAGEN, Valencia, Calif.). Primers for the Erbb2 (HER2 RT^2 qpCR primer assay, proprietary primer sequence, QIAGEN) and 18S housekeeping gene (forward: 5′-[sequence]-3′ reverse: 5′-[sequence]-3′) (IDT Inc, Coralville, Iowa) were used. The real-time PCR, in a reaction volume of 25 μL, was performed using the SYBR Green Supermix kit with the Bio-Rad iQ5 system (Hercules, Calif.).
During the lymph node harvesting, gross visualization of the organs was made to identify any obvious signs of metastases, growths, or toxicities associated with any of the treatments.

[14] = test system: MDA-1986 human head and neck squamous cell carcinoma; experiment: Head and neck tumor model, efficacy of sugar-NO1; format: in vivo, female nude mice
[15] = 72 h; Star-GA on GA basis; read-out: IC50s HUVEC

CC1CN([N+]([O-])=NOc2ccc([N+](=O)[O-])cc2[N+](=O)[O-])CCN1CCO (stereo not drawn) [NO2, O^2-(2,4-Dinitrophenyl) 1-[[4-(2-hydroxy)ethyl]-3-methylpiperazin-1-yl]diazen-1-ium-1,2-diolate]
Release half-life [1]: 9.0 h
IC50 [2]: 57000 ± 6000 nM
IC50 [3]: 27000 ± 3000 nM

[N]=O [nitric oxide]
half-life in vivo [4]: about 5 seconds

COC1=C2C[C@@H](C)C[C@H](OC)[C@H](O)[C@@H](C)/C=C(\C)[C@H](OC(N)=O)[C@@H](OC)/C=C\C=C(/C)C(=O)NC(=CC1=O)C2=O [geldanamycin]
IC50 ([5]; Homo sapiens, HUVEC, 72 h; read-out: IC50s HUVEC): 440 nM
IC50 ([6]; Mus musculus, B16-F10, 72 h, Star-GA on GA basis): 36 nM
IC50 ([7]; Mus musculus, 4T1.2): 260 nM
IC50 ([8]; Homo sapiens, A2058, 72 h, Star-GA on GA basis): 44 nM
IC50 ([9]; Homo sapiens, MDA-MB-231): 963 nM

CO[C@H]1/C=C\C=C(/C)C(=O)NC2=CC(=O)C(NCCN(C)C)=C(C[C@@H](C)C[C@H](OC)[C@H](O)[C@@H](C)/C=C(\C)[C@@H]1OC(N)=O)C2=O [17-DMAG, 17-dimethylaminoethylamino-17-demethoxygeldanamycin]
survival [10]: neither 17-DMAG nor star-GA treatments exhibited an increase in survival
4T1.2 Neu tumor response compared to non-treated mice ([10]; polymer 255 mg/kg): no statistical significances
IC50 [5, 15]: 29000 nM
IC50 ([6]; 72 h, Star-GA on GA basis): 250 nM
increase in in vitro toxicity in comparison to melphalan ([6]; B16F10 cell line): 400 fold
IC50 [7]: 296 nM
IC50 ([8]; 72 h, Star-GA on GA basis): 44 nM
physical signs of toxicities ([11]; B16F10 study doses): signs of tail necrosis
B16F10 tumor response [11]: did not exhibit statistically significant tumor growth inhibition
MTD [12]: 15 mg/kg
IC50 [9]: 189 nM
gross visualization of the organs [13]: appeared to have liver metastases

N[C@@H](Cc1ccc(N(CCCl)CCCl)cc1)C(=O)O [melphalan]
IC50 ([5]; Homo sapiens, HUVEC, 72 h, read-out: IC50s HUVEC): 209000 nM
IC50 ([6]; Mus musculus, B16-F10, 72 h): 103000 nM
IC50 ([8]; Homo sapiens, A2058, 72 h): 30000 nM
B16F10 tumor response [11]: complete response to treatment

C=CCNC1=C2C[C@@H](C)C[C@H](OC)[C@H](O)[C@@H](C)/C=C(\C)[C@H](OC(N)=O)[C@@H](OC)/C=C\C=C(/C)C(=O)NC(=CC1=O)C2=O [17-AAG, 17-allylamino-17-demethoxygeldanamycin]
IC50 [5, 15]: 64000 nM
IC50 ([6]; 72 h, Star-GA on GA basis): 825 nM
IC50 [7]: 315 nM
IC50 ([8]; 72 h, Star-GA on GA basis): 53 nM

CCOC(=O)N1CCN(/[N+]([O-])=N/Oc2ccc([N+](=O)[O-])cc2[N+](=O)[O-])CC1 [JS-K, O^2-(2,4-Dinitrophenyl) 1-[(4-ethoxycarbonyl)piperazin-1-yl]diazen-1ium-1,2-diolate]
disease condition (modified RECIST), animal No. 1 ([14]; 10 mg/kg on NO prodrug basis): PD (PD = Progressive Disease (>30% tumor growth))
disease condition (modified RECIST), animal No. 2 ([14]; 10 mg/kg on NO prodrug basis): Necrosis
disease condition (modified RECIST), animal No. 3 ([14]; 10 mg/kg on NO prodrug basis): PD (PD = Progressive Disease (>30% tumor growth))
disease condition (modified RECIST), animal No. 4 ([14]; 10 mg/kg on NO prodrug basis): PD (PD = Progressive Disease (>30% tumor growth))
disease condition (modified RECIST), animal No. 5 ([14]; 10 mg/kg on NO prodrug basis): Necrosis
disease condition (modified RECIST), animal No. 6 ([14]; 10 mg/kg on NO prodrug basis): PD (PD = Progressive Disease (>30% tumor growth))
tumor size ([14]; JS-K i.v. six weeks after tumor cell implantation, sugar-NO1 s.c. same time frame, 10 mg/kg): approximately 1000 mm^3
animals euthanized ([14]; within 7 weeks, tumor size exceeding 1000 mm^3 or necrosis of injection site on the tail): 100%
IC50 [2]: 16000 ± 2000 nM
IC50 [3]: 42000 ± 4000 nM
